# In paper PMC8624133, “10th Trends in Medical Mycology Held on 8 to 11 October 2021, Aberdeen, Scotland, Organized by the European Confederation of Medical Mycology (ECMM)” (Journal of Fungi, 2021):
# Like-named read-outs stand apart in the source and are kept apart here.
# Legend:
# [1] = test system: R. delemar 99–880; assay: CLSI M38 in vitro susceptibility; type: cell-based, Rhizopus delemar; conditions: Rhizopus delemar, read-out: MIC at 100% inhibition of growth
# Protocol: Methods & Materials: In vitro susceptibility was conducted by the CLSI M38 method using a clinical isolate of Rhizopus delemar (a common cause of mucormycosis). ICR mice were immunosuppressed with cyclophosphamide and cortisone acetate on days −2, +3, and +8, relative to infection with intratracheally instilled R. delemar. […] Mice survival through Day +21 served as the primary endpoint.
# [2] = test system: A. terreus sensu stricto isolates; assay: AMB MIC (EUCAST) of isolates used for time-kill; type: cell-based; conditions: Aspergillus terreus
# Protocol: Materials & Methods: Tolerance is the ability of a “susceptible isolate” to grow in the presence of AMB above the MIC; tolerant fungi are characterized by a longer minimum duration of killing time (MDK) than susceptible isolates. We investigated AMB-MDKs of A. terreus sensu stricto isolates (n = 4) representing susceptible (S < […]) and resistant (R > […]) phenotypes (EUCAST). Time-kill curve analysis (99% killing of the initial population) was performed in RPMI 1640 and AM3 media at different AMB concentrations, and in parallel, the germination rate was determined microscopically.
# [3] = test system: sessile cells of yeast mono and dual-species biofilms; assay: MIC of catheter yeast isolates, mono and dual-species biofilms; type: cell-based; conditions: range
# [4] = test system: Cryptococcus bacillisporus (AFLP5/VGIII); assay: Treatment of a grey parrot with cryptococcosis; type: in vivo, grey parrot (Psittacus erithacus); conditions: in drinking water, 600 mg per litre, after 6 months
# Description: Phenotypic and molecular analysis of the isolated yeast allowed the identification of Cryptococcus bacillisporus (AFLP5/VGIII) as the cause of the infection.
# [5] = test system: Candida isolates; type: cell-based, Candida spp.; conditions: E-Test strips
# [6] = test system: environmental yeasts from a lagoon; assay: organism not typed; type: cell-based
# [7] = test system: C. blankii; assay: Vitek 2 fungal susceptibility card; type: cell-based, Candida blankii
# [8] = test system: Cryptococcus bacillisporus (AFLP5/VGIII); assay: E-test method; type: cell-based
# [9] = test system: Candida sp.; type: cell-based
# [10] = test system: C. albicans; assay: In vitro fluconazole susceptibility, neonatal invasive candidiasis; type: cell-based, Candida albicans
# [11] = test system: C. albicans SC5314 experimental population; assay: Experimental evolution under fluconazole, azole susceptibility; type: cell-based; conditions: Candida albicans
# [12] = test system: Candida albicans and C. glabrata; type: cell-based, Candida spp.; conditions: 20 women with RVVC
# [13] = test system: clinical Trichophyton spp. isolates; assay: Checkerboard microdilution based on EUCAST; type: cell-based; conditions: for MIC: Trichophyton, read-out: geometric mean MIC, drug alone
# Protocol: Materials & Methods: The combination has been tested against 9 terbinafine-susceptible and 7 terbinafine-resistant clinical Trichophyton spp. isolates from India. In vitro interactions were evaluated by a microdilution checkerboard technique based on the EUCAST reference method for antifungal susceptibility testing. The mode of interaction between terbinafine and itraconazole was determined by the fractional inhibitory concentration index (FICI). The FICI was interpreted as FICI ≤ 0.5 = synergy, FICI > 0.5–4 = no interaction, and FICI > 4.0 = antagonism.
# [14] = test system: Scedosporium apiospermum; assay: EUCAST reference method MIC; type: cell-based
# Protocol: Case presentation: A patient presented with a bursitis of their left elbow. Six months before they were treated with lymphodepleting chemotherapy directly followed by B-cell associated CD19-specific chimeric antigen receptor (CAR) T cell therapy for recurrence of follicular lymphoma. They were considered immunocompromised, with total neutrophils and lymphocytes slightly below normal levels, absent B-cells, and a treatment associated persistent hypogammaglobulinaemia. Four weeks before presentation at our hospital they contacted their GP because of swelling and pain of their left elbow. Their GP aspirated fluid from their elbow, injected steroids and started antibiotics, but now there was recurrence of swelling and pain. Bursitis without arthritis was diagnosed by a rheumatologist and the bursa was surgically opened and drained, relieving pus. The patient was started on oral flucloxacillin and sent home. Two days later the culture of the pus from the bursa grew white colonies on a Sabouraud dextrose agar plate, showing long conidophores with large oval conidia on microscopy. […] Over the next few weeks the bursitis symptoms diminished. […] Voriconazole is considered first line treatment for Scedosporium infections. […] Eight weeks later there were no signs of bursitis and posaconazole was discontinued.
# [15] = Therapeutic drug monitoring of VRC plasma levels; type: in vivo, human
# Protocol: Materials & Methods: Patients are aged over 18 years and given antifungal therapy between January 2019–November 2020 in the Hacettepe University Hospitals were included. The study was approved by the University Clinical Research Ethics Committee. Demographics and antifungal treatment periods of the patients were analyzed retrospectively. As of January 2020, VRC plasma levels had started to be analyzed on a weekly basis in the study setting. Plasma VRC levels (target range: 1–5.5 mg/L) were measured by using liquid chromatography—triple quadrupole mass spectrometer (Shimadzu LCMS-8040). The impact of TDM on appropriateness of VRC treatment were evaluated by the numbers of treatment switch and the use of oral route.
# [16] = Voriconazole exposure during ECMO, retrospective; type: in vivo, human
# [17] = test system: S. apiospermum (SA) biofilms; assay: Mature biofilm damage, XTT metabolic reduction assay; conditions: Scedosporium apiospermum, 24 h, read-out: BF MIC50
# [18] = test system: Asp. flavus; assay: Triazole resistance agar screening, four-well plate; conditions: RPMI agar, 1 µg/mL, 29 isolates
# Protocol: (§1) All the isolates were identified phenotypically. […] Fungal spores were suspended in normal saline (0.85%) and adjusted to 0.5 McFarland and 50 μL was plated in each well. […] Plates were incubated at 35–37 °C for 72 h in ambient air. The presence or absence of growth was observed visually at 24 h, 48 h, and 72 h.
# [19] = test system: Asp. fumigatus; assay: as above; conditions: RPMI agar, 1 µg/mL, 7 isolates
# Protocol: as §1
# [20] = 7 terbinafine-resistant isolates
# [21] = 9 terbinafine-susceptible isolates
compound,measurement,setting,value
C[C@@H]1[C@H](O)[C@@H](C)/C=C/C=C/C=C/C=C/C=C/C=C/C=C/[C@H](O[C@@H]2O[C@H](C)[C@@H](O)[C@H](N)[C@@H]2O)C[C@@H]2O[C@](O)(C[C@@H](O)C[C@@H](O)[C@H](O)CC[C@@H](O)C[C@@H](O)CC(=O)O[C@H]1C)C[C@H](O)[C@H]2C(=O)O [amphotericin B],MIC,[1],0.06 µg/mL
same,MIC,"[2]; A. terreus 81 and 31, each",1 µg/mL
same,MIC,[2]; A. terreus 134,4 µg/mL
same,MIC,[2]; A. terreus 164,0.5 µg/mL
same,MIC,[3],0.25 to 8 µg/mL
same,clinical response,[4],good response
OC(Cn1cncn1)(Cn1cncn1)c1ccc(F)cc1F [fluconazole],comparative effectiveness among antifungals,[5],most effective antifungal
same,isolates classified as resistant-like,"[6]; number of 71 yeasts, MIC at or above Candida breakpoint",Fifty-five
same,MIC,"[6]; range, read-out: MIC of resistant-like isolates",64 to 2050 µg/mL
same,susceptibility,[7],resistant
same,antifungal susceptibility,[8],low response
same,Susceptibility to fluconazole (share of isolates),[9]; 2019,66%
same,Susceptibility to fluconazole (share of isolates),[9]; full 12 month period in 2020,82%
same,Susceptibility to fluconazole (share of isolates),"[9]; overall, entire period reviewed",74%
same,Susceptibility to fluconazole (share of isolates),[9]; to date in January–April 2020,100%
same,dose-dependent susceptible pathogens,[10],0%
same,in vitro resistant pathogens,[10],7%
same,MIC,[11]; SC5314,0.5 µg/mL
same,MIC,"[11]; SC5314, 168 h",8 µg/mL
same,in vitro resistant pathogens,[12],45%
CCC(C)n1ncn(-c2ccc(N3CCN(c4ccc(OCC5COC(Cn6cncn6)(c6ccc(Cl)cc6Cl)O5)cc4)CC3)cc2)c1=O (stereo not shown) [itraconazole],"MIC range, drug alone",[13]; [20],0.0625 to 0.5 µg/mL
same,"MIC range, drug alone",[13]; [21],0.125 to 0.5 µg/mL
same,MIC,[13]; [20],0.19 µg/mL
same,MIC,[13]; [21],0.3 µg/mL
C[C@@H](c1ncncc1F)[C@](O)(Cn1cncn1)c1ccc(F)cc1F [voriconazole],MIC,[14]; first isolate from bursa pus,0.5 µg/mL
same,MIC,"[14]; isolate two months later, under posaconazole",1 µg/mL
same,median plasma level (range),"[15]; 88 levels in 34 patients, LC-MS",4.2 (0.2–18.1) mg/L
same,"Adverse effects, n (%)",[15]; Subtherapeutic (<1 mg/L),0 (0.0)
same,"Adverse effects, n (%)",[15]; Supratherapeutic (>5.5 mg/L),4 (13.8)
same,"Adverse effects, n (%)",[15]; Therapeutic (1–5.5 mg/L),0 (0.0)
same,VRC-related adverse effects,[15]; all at supratherapeutic levels,Four
same,"plasma levels at subtherapeutic range (<1 mg/L), n (%)",[15]; n = 88,14 (15.9%)
same,"plasma levels at supratherapeutic range (>5.5 mg/L), n (%)",[15]; n = 88,29 (33.0%)
same,"plasma levels at therapeutic range (1–5.5 mg/L), n (%)",[15]; n = 88,45 (51.1%)
same,samples with subtherapeutic concentration (<2 mg/L),[16]; during ECMO,56%
same,median trough concentration [IQR],[16]; under ECMO,2.4 [1.2–4.7] mg/L
same,median trough concentration [IQR],[16]; without ECMO,2.5 [1.4–3.9] mg/L
same,samples with subtherapeutic concentration (<2 mg/L),[16]; without ECMO,39%
same,MIC50,[17],32 µg/mL
same,"isolates with growth only in voriconazole well, n (%)",[18]; 48 h,1 (3.44%)
same,"isolates with growth only in voriconazole well, n (%)",[18]; 72 h,11 (37.93%)
same,"isolates with growth only in voriconazole well, n (%)",[19]; 48 h,0
same,"isolates with growth only in voriconazole well, n (%)",[19]; 72 h,3 (42.85)
